According to patent US8809354B2, “3-amino-2-(4-nitrophenyl)-4-(3H)-quinazolinone or derivatives thereof for treating or preventing antiviral infections” (priority 2011, dated 2014):

Key:
[1] = test system: HCV sub-genomic replicon in FCA 4 cells; format: cell-based, hepatitis C virus
From the text: FCA-4 sub genomic replicon was bicistronic construct composed of the HCV IRES (nucleotides 1 to 377 of the 5′NCR); the neomycin phosphotransferase (neo) gene; the encephalomyocarditis IRES, which mediates the translation of HCV nonstructural proteins NS3 through NS5; and the 3′NCR as shown in FIG. 2. […] FCA-4 sub-genomic replicon consists of single adaptive mutation and a deletion of a serine residue at position 1176 (Guo et al, 2001).
The bicistronic RNA molecule contains the HCV IRES and a few core-coding sequences, which are followed by neomycin phosphotransferase gene (Neor). These sequences are followed by the encephalomyocarditis virus IRES placed in front of HCV sequences encoding nonstructural protein NS3 to NS5B, terminating at the HCV 3NCR.
To determine the antiviral effect against HCV, FCA 4 cells were seeded in six well plates. After 24 h, media containing 20 μM of test compound was added to the plates. Cells were incubated at 37° C. in CO2 incubator for additional 48 h. At the end of the incubation, cells were harvested, RNA was extracted and cDNA were generated by oligo dT priming. cDNA was amplified by PCR using primers specific to the 5′UTR and NS5B gene of HCV. Amplification of GAPDH mRNA served as an internal control. […]

[2] = test system: HCV 3a genotype in MDBK cells; experiment: Synergy with interferon-α against HCV in MDBK cells (real time Quantitative RT-PCR); format: cell-based, hepatitis C virus; conditions: with interferon-α 5 IU/well, 6 hrs pre-incubation, HCV 3a 2×10^4 copies per well, 18 hrs
Experimental: Surprising synergism was recorded when Compound 1 was combined with Interferon alpha. […] MDBK cells were incubated for 6 hrs with compounds and interferon alone, or combination of compound and interferon in a 96-well plat. After 6 hrs cells were infected with 2×10^4 copies of HCV 3a genotype per well and incubated for additional 18 hrs. At the end of incubation period, total RNA was extracted by Gentra kit, and the levels of HCV RNA remaining were determined, by real time Quantitative RT-PCR assay and are shown as percentage of HCV RNA survival in cells. Results are represented as the average and standard error for three independent experiments.

HCV = conditions: Ribavirin alone, cited from earlier work
HCV protease = HCV protease (Hepatitis C virus genotype 1a, UniProt P26664); conditions: SDS-PAGE and autoradiography assay; cited from earlier work
Chain of HCV protease (P26664 1027-1657): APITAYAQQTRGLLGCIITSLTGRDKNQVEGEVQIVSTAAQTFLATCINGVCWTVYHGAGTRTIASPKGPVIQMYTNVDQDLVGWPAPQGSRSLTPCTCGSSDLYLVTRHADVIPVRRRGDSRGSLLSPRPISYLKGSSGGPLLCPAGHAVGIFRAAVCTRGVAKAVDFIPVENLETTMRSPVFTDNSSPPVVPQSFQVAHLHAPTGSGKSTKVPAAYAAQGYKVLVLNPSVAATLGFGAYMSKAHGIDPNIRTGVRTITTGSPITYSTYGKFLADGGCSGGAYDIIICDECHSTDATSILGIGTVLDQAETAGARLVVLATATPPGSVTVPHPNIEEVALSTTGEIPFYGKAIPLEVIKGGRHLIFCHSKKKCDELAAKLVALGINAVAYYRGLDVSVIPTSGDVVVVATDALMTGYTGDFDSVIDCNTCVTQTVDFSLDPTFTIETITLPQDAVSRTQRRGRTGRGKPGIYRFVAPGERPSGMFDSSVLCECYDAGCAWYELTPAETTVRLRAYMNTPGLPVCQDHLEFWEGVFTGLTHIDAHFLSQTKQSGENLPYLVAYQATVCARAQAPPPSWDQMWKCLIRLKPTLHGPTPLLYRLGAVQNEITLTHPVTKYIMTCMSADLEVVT

## Nn1c(-c2ccc([N+](=O)[O-])cc2)nc2ccccc2c1=O [Compound 1, 3-amino-2-(4-nitrophenyl)-4-(3H)-quinazolinone]
[1]
  Cytotoxicity in relation to antiviral suppression: independent of cytotoxicity
[1]; 20 μM, 48 h, PCR with primers for 5′UTR and NS5B
  HCV RNA expression: inhibited HCV RNA expression significantly
[2]
  Antiviral activity in combination with interferon-α (HCV RNA survival): synergistic effect

## NC(=O)c1ncn([C@@H]2O[C@H](CO)[C@@H](O)[C@H]2O)n1 [Ribavirin, 1-β-D-ribofuranosyl-1-1,2,4-triazole-3-carboxamide]
HCV; patients
  Serum levels of HCV-RNA: does not lower
HCV
  Patients in whom serum amino transferase levels are reduced to normal: 40%

## CCCC(=O)c1cc2c(c(O)c1C)C(=O)C(=O)c1c(O)cccc1-2 [Sch 68631]
HCV protease
  Activity against HCV protease: micromolar activity
